Tested on: cucumber anthracnose (黄瓜炭疽病)
Test: In vivo protective activity against cucumber anthracnose (potted plants, inoculation 24 h after spraying)

Q: Which control effect (6.5 mg/L) does the source give for O=C(NCCc1ccc(F)cc1)c1ccc(-c2cccs2)nc1CCl [24.3] here?
A: 98%

Q: And the control effect (25 mg/L)?
A: 100%

Q: And the control effect (100 mg/L)?
A: > 98%

Q: And the control effect (400 mg/L)?
A: 100%
